IC50 data for 65 compounds are collected here from ChEMBL document CHEMBL2321771, “Inhibition of Ebola Virus Infection: Identification of Niemann-Pick C1 as the Target by Optimization of a Chemical Probe” (ACS Med Chem Lett, 2013).

Bounds are passed on as bounds.

This test has as its system Ebolavirus. Nature of the test: Antiviral activity against Ebola virus by cell based luciferase reporter gene assay. Particulars: Orthoebolavirus. It counts as functional, Ebola virus sp.

Compound `O=C(CC12CC3CC(CC(C3)C1)C2)NCC(=O)N1CCN(Cc2ccccc2OCc2ccccc2)CC1` showed an IC50 of 2 µM. For `COC(=O)c1cccc(COc2ccccc2CN2CCN(C(=O)CNC(=O)CC34CC5CC(CC(C5)C3)C4)CC2)c1` the value was 2.4 µM; for `COc1cccc(CN2CCN(C(=O)CNC(=O)CC34CC5CC(CC(C5)C3)C4)CC2)c1`, 2 µM. Consider `O=C(CNC(=O)C12CC3CC(CC(C3)C1)C2)N1CCN(Cc2ccccc2)CC1`, for which the IC50 came to 29 µM. For `N#Cc1ccccc1CN1CCN(C(=O)CNC(=O)CC23CC4CC(CC(C4)C2)C3)CC1` the value was 3.9 µM; for `O=C(CC12CC3CC(CC(C3)C1)C2)NCC(=O)N1CCN(Cc2ccc(Cl)cc2)CC1`, 2.5 µM; for `O=C(CC12CC3CC(CC(C3)C1)C2)NCC(=O)N1CCN(Cc2cccc(OCc3ccccc3)c2)CC1`, 4 µM. The result for `O=C(CC12CC3CC(CC(C3)C1)C2)NCC(=O)N1CCN(Cc2ccccc2OCc2ccncc2)CC1` reads 0.8 µM; that for `COC(=O)c1ccc(CN2CCN(C(=O)CNC(=O)CC34CC5CC(CC(C5)C3)C4)CC2)cc1`, 15 µM; that for `COc1ccc(CN2CCN(C(=O)CNC(=O)CC34CC5CC(CC(C5)C3)C4)CC2)cc1`, 5.4 µM. As for `O=C(CC12CC3CC(CC(C3)C1)C2)NCC(=O)N1CCN(Cc2ccccc2Cl)CC1`, 3.2 µM corresponded to half-maximal inhibition (IC50). The result for `CN(C)C(=O)c1ccc(COc2ccccc2CN2CCN(C(=O)CNC(=O)CC34CC5CC(CC(C5)C3)C4)CC2)cc1` reads 3.3 µM; that for `O=C(CC12CC3CC(CC(C3)C1)C2)NCC(=O)N1CCN(Cc2ccc(C(=O)O)cc2)CC1`, over 40 µM; that for `CC(O)C(NC(=O)CC12CC3CC(CC(C3)C1)C2)C(=O)N1CCN(Cc2ccccc2)CC1` (stereo not given), over 40 µM. For `N#Cc1ccc(COc2ccccc2CN2CCN(C(=O)CNC(=O)CC34CC5CC(CC(C5)C3)C4)CC2)cc1` the value was 4.4 µM. The result for `O=C(CC12CC3CC(CC(C3)C1)C2)NCC(=O)N1CCN(Cc2ccccc2OCc2ccc(C(=O)O)cc2)CC1` reads 4 µM; that for `CC(NC(=O)CC12CC3CC(CC(C3)C1)C2)C(=O)N1CCN(Cc2ccccc2)CC1` (stereo not given), over 40 µM. Take `O=C(CC12CC3CC(CC(C3)C1)C2)NCC(=O)N1CCN(Cc2ccc(O)cc2)CC1`: inhibition was half-maximal at 7 µM (IC50). Take `O=C(CC12CC3CC(CC(C3)C1)C2)NCC(=O)N1CCN(Cc2ccc(Cl)cc2Cl)CC1`: it took 6.6 µM to reach half-maximal inhibition (IC50).

`O=C(CC12CC3CC(CC(C3)C1)C2)NCC(=O)N1CCN(Cc2cccc(Br)c2)CC1` gave an IC50 of 1 µM. For `O=C(CC12CC3CC(CC(C3)C1)C2)NCC(=O)N1CCN(Cc2ccc(Cl)c(Cl)c2)CC1` the value was 0.75 µM; for `O=C(CC12CC3CC(CC(C3)C1)C2)NCC(=O)N1CCN(Cc2ccccn2)CC1`, 8.5 µM. As for `O=C(CC12CC3CC(CC(C3)C1)C2)NCC(=O)N1CCN(Cc2ccccc2C(=O)O)CC1`, the IC50 was over 40 µM. `O=C(CC12CC3CC(CC(C3)C1)C2)NCC(=O)N1CCN(C(=O)c2ccccc2)CC1`: the half-inhibitory concentration (IC50) was 3 µM. Regarding `COC(=O)c1ccccc1CN1CCN(C(=O)CNC(=O)CC23CC4CC(CC(C4)C2)C3)CC1`, the IC50 came to 8 µM. The result for `O=C(CC12CC3CC(CC(C3)C1)C2)NCC(=O)N1CCN(Cc2ccncc2)CC1` reads 14.5 µM. For `O=C(CC1CCCCC1)NCC(=O)N1CCN(Cc2ccccc2)CC1` the value was over 40 µM. The result for `O=C(CC12CC3CC(CC(C3)C1)C2)NCC(=O)N1CCN(Cc2cccnc2)CC1` reads 6.8 µM; that for `O=C(CC12CC3CC(CC(C3)C1)C2)NCC(=O)N1CCN(Cc2ccc(Br)cc2)CC1`, 3.2 µM. Consider `O=C(CC12CC3CC(CC(C3)C1)C2)NCC(=O)N1CCN(Cc2ccccc2Br)CC1`, for which half-maximal inhibition (IC50) was put at 3.4 µM.

Turning to `O=C(Cc1ccccc1)NCC(=O)N1CCN(Cc2ccccc2)CC1`, the IC50 is over 40 µM. The result for `O=C(CC12CC3CC(CC(C3)C1)C2)NCC(=O)N1CCN(Cc2ccccc2C(F)(F)F)CC1` reads 1.8 µM; that for `O=C(CC12CC3CC(CC(C3)C1)C2)NCC(=O)N1CCN(Cc2ccc3ccccc3c2)CC1`, 3 µM. Compound `N#Cc1cccc(CN2CCN(C(=O)CNC(=O)CC34CC5CC(CC(C5)C3)C4)CC2)c1` gave an IC50 of 1.2 µM. On to `O=C(Cc1ccc(Cl)cc1)NCC(=O)N1CCN(Cc2ccccc2)CC1`, for which the 50% inhibitory concentration (IC50) was found to be 19 µM. The result for `CC(C)CC(NC(=O)CC12CC3CC(CC(C3)C1)C2)C(=O)N1CCN(Cc2ccccc2)CC1` (stereo not given) reads 29 µM; that for `CNC(=O)c1ccc(COc2ccccc2CN2CCN(C(=O)CNC(=O)CC34CC5CC(CC(C5)C3)C4)CC2)cc1`, 2.1 µM; that for `O=C(CC12CC3CC(CC(C3)C1)C2)NCC(=O)N1CCN(Cc2cc(Br)ccc2O)CC1`, 0.5 µM. As for `COc1ccccc1CN1CCN(C(=O)CNC(=O)CC23CC4CC(CC(C4)C2)C3)CC1`, the IC50 is 2.1 µM. For `Cc1cccc(CN2CCN(C(=O)CNC(=O)CC34CC5CC(CC(C5)C3)C4)CC2)c1` the value was 1.1 µM; for `Cc1ccc(CN2CCN(C(=O)CNC(=O)CC34CC5CC(CC(C5)C3)C4)CC2)cc1`, 1.1 µM; for `Cc1cccc(COc2ccccc2CN2CCN(C(=O)CNC(=O)CC34CC5CC(CC(C5)C3)C4)CC2)c1`, 0.35 µM. For `O=C(CC12CC3CC(CC(C3)C1)C2)NCC(=O)N1CCN(Cc2cccc3ccccc23)CC1` the value was 3.4 µM; for `CC(OCc1ccccc1)C(NC(=O)CC12CC3CC(CC(C3)C1)C2)C(=O)N1CCN(Cc2ccccc2)CC1` (stereo not given), 29 µM. The result for `CC(C)(C)CC(=O)NCC(=O)N1CCN(Cc2ccccc2)CC1` reads over 40 µM.

On to `O=C(CC12CC3CC(CC(C3)C1)C2)NCCCC(=O)N1CCN(Cc2ccccc2)CC1`, for which the IC50 amounted to 22 µM.

Turning to `O=C(CC12CC3CC(CC(C3)C1)C2)NCC(=O)N1CCN(C(c2ccccc2)c2ccccc2)CC1`, the half-inhibitory concentration (IC50) was over 10 µM. As for `COc1cccc(COc2ccccc2CN2CCN(C(=O)CNC(=O)CC34CC5CC(CC(C5)C3)C4)CC2)c1`, the IC50 stood at 1.9 µM. The result for `O=C(NCC(=O)N1CCN(Cc2ccccc2)CC1)c1ccccc1` reads 31 µM; that for `O=C(CC12CC3CC(CC(C3)C1)C2)NCC(=O)N1CCN(Cc2ccccc2OCc2ccc([N+](=O)[O-])cc2)CC1`, 1.7 µM; that for `O=C(CC12CC3CC(CC(C3)C1)C2)NCC(=O)N1CCN(Cc2ccccc2OCc2cccnc2)CC1`, 2.1 µM. For `COC(=O)c1cccc(CN2CCN(C(=O)CNC(=O)CC34CC5CC(CC(C5)C3)C4)CC2)c1` the value was 14 µM. The result for `O=C(CC12CC3CC(CC(C3)C1)C2)NCC(=O)N1CCN(Cc2ccccc2OCc2ccccc2[N+](=O)[O-])CC1` reads 1.6 µM; that for `O=C(CC12CC3CC(CC(C3)C1)C2)NCC(=O)N1CCN(Cc2ccccc2OCc2cccc(Br)c2)CC1`, 2.4 µM; that for `CN(CC(=O)N1CCN(Cc2ccccc2)CC1)C(=O)CC12CC3CC(CC(C3)C1)C2`, 6.7 µM.

Turning to `CC(C)C(NC(=O)CC12CC3CC(CC(C3)C1)C2)C(=O)N1CCN(Cc2ccccc2)CC1` (stereo not given), the IC50 was over 40 µM. Consider `O=C(CC12CC3CC(CC(C3)C1)C2)NCC(=O)N1CCN(Cc2ccccc2O)CC1`, for which the IC50 came to 2.9 µM. The result for `CC(=O)Nc1ccc(CN2CCN(C(=O)CNC(=O)CC34CC5CC(CC(C5)C3)C4)CC2)cc1` reads 7.5 µM; that for `O=C(CC12CC3CC(CC(C3)C1)C2)NCC(=O)N1CCN(Cc2cccc(C(F)(F)F)c2)CC1`, 2.6 µM. For `Cc1cc(O)cc(C)c1CN1CCN(C(=O)CNC(=O)CC23CC4CC(CC(C4)C2)C3)CC1` the value was 8 µM; for `N#CCC(NC(=O)CC12CC3CC(CC(C3)C1)C2)C(=O)N1CCN(Cc2ccccc2)CC1` (stereo not given), 22 µM; for `O=C(CC12CC3CC(CC(C3)C1)C2)NC(CCC(=O)OCc1ccccc1)C(=O)N1CCN(Cc2ccccc2)CC1` (stereo not given), 8.7 µM.

Compound `N#Cc1ccc(CN2CCN(C(=O)CNC(=O)CC34CC5CC(CC(C5)C3)C4)CC2)cc1` displayed an IC50 of 8 µM.

Compound `O=C(CC12CC3CC(CC(C3)C1)C2)NCC(=O)N1CCN(Cc2cccc(C(=O)O)c2)CC1` came in with an IC50 of over 40 µM. `O=C(NCC(=O)N1CCN(Cc2ccccc2)CC1)C1CCCCC1` showed an IC50 of 27 µM.
